Key:
[1] = test system: human alveolar epithelial cells (A-549)
From the text: (§1) Cytotoxicity of PPIs. […] Mean+/−SEM from Duplicate Experiments. * p<0.05.

[2] = test system: mouse alveolar epithelial (MLE-12) cells
From the text: as §1

[3] = test system: human alveolar epithelial cells (A-549); assay: Apoptosis, Cell Death Detection ELISA, A23187-induced; type: cell-based; settings: 1 μM A23187, 24 hours
Description: Apoptosis as measured by mono- and oligo-nucleosome enrichment was determined using Cell Death Detection ELISA^PLUS (Roche). Histone-DNA complex (His-DNA CPx) was included as a control. […] Data shown are Mean+/-SEM from Duplicate Experiments. * p<0.05.

human DDAH1 = human DDAH1 (Homo sapiens (Human), UniProt O94760); assay: Fluorimetric CPM assay of DDAH activity (SMTC substrate); type: biochemical; settings: fresh powders from vendors, vs vehicle
Chain of human DDAH1 (O94760 whole entry): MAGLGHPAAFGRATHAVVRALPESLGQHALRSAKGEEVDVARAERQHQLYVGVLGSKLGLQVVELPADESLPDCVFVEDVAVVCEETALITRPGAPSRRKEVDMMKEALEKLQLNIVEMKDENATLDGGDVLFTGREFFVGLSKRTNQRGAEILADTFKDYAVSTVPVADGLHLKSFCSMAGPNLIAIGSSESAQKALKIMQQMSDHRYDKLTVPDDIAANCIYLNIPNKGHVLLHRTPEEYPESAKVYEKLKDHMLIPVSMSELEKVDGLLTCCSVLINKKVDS
Description: The activity of human DDAH1 was quantified using fluorimetric assay by incubating the enzyme with an artificial substrate S-methyl-thiocitrulline (SMTC). DDAH metabolizes SMTC into L-citrulline and methanethiol (CH3—SH). The thiol released from the reaction can be monitored fluorimetrically by adding 7-Diethylamino-3-(4-maleimidophenyl)-4-methylcoumarin (CPM).
The activity of human DDAH1 was quantified using fluorimetric assay by incubating the enzyme with an artificial substrate S-methyl-thiocitrulline (SMTC), as described in Example 1. DDAH metabolizes SMTC into L-citrulline and methanethiol (CH3—SH). The thiol released from the reaction can be monitored fluorimetrically by adding 7-Diethylamino-3-(4-maleimidophenyl)-4-methylcoumarin (CPM).
For the secondary assay, a fluorimetric assay that uses SMTC as a substrate was adapted. DDAH metabolizes SMTC into L-citrulline and methanethiol (CH3—SH). In brief, DDAH (30 nM final concentration) was mixed with SMTC (100 μM final concentration), CPM (50 μM final concentration) and screening buffer (containing a final concentration of 0.01% Triton-X100 and 1 mM EDTA). The reaction mix was added to black 384-well plates to validate primary hits that modulate DDAH activity. The release of CH3—SH was monitored fluorimetrically by adding 7-Diethylamino-3-(4-maleimidophenyl)-4-methylcoumarin (CPM) as described in Linsky (Linsky, T. & Fast, W. A continuous, fluorescent, high-throughput assay for human dimethylarginine dimethylaminohydrolase-1. J Biomol Screen 16, 1089-1097 (2011)).

[4] = test system: mouse alveolar epithelial cell; assay: BrdU Cell Proliferation Assay, mouse alveolar epithelial cells; type: cell-based; settings: mouse cell line, FIG. 25
From the text: A “vehicle only” sample served as a “no DDAH” control.

[5] = test system: human alveolar epithelial cells (A-549); assay: Nitric oxide production, total nitrite (NOx) by Griess reaction; type: cell-based; settings: 24 hours
Description: Total nitrite (NOx) was measured using Griess reaction. Data are Mean±SEM from duplicate experiments. *p<0.05.

[6] = test system: human lung epithelial cells (A-549); assay: Intracellular ADMA by ELISA in lung epithelial cells; type: cell-based; settings: Omeprazole at 10, 20, 50 or 100 μM, 24 hours
Description: After 24 hours, ADMA was measured by enzyme-linked immunosorbent assay (ELISA). […] Data are Mean±SEM from duplicate experiments. *p<0.05 compared to vehicle (“Veh”).

[7] = test system: Lung fibroblasts from patients with IPF; assay: Sircol collagen assay, TGF-β stimulated IPF lung fibroblasts; type: cell-based, human; settings: Omeprazole 50 or 100 μM; L-257 50 μM; A83-01 20 μM; 24 hours
Description: Cells were seeded at 4×10^4 cells/well in a 6-well plate (1.2 mL media per well) and incubated overnight at 37° C./5% CO2. The next day, the conditioned media was aspirated and the cells were rinsed with phosphate-buffered saline (PBS) prior to (fetal bovine) serum starving them for 2 hours followed by 22 hours low serum (0.1% fetal bovine serum; FBS) in order to synchronize them.
On day-3, the cells were stimulated with fully-supplemented media (containing 10% FBS) in the absence or presence of recombinant transforming growth factor-1 (TGF-β1) (at 10 ng/mL final conc) in the presence of a DDAH inhibitor (DDAHi; the proton pump inhibitor (PPI) lansoprazole at a final concentration of 20 μM) or vehicle for 24 hours.
The acid-soluble collagen content in each well was determined in the conditioned media using the Sircol collagen assay (Accurate Chemical and Scientific Corp; CLRS 1000) following the recommended protocol.
The amount of collagen in each well was estimated from a standard curve and the collagen content in each sample was normalized to total cellular protein from the respective well and was expressed as μg collagen per milligram of protein.
Lung fibroblasts were isolated from patients diagnosed with IPF according to International Standards. Isolated fibroblasts were seeded at 6×10^4 and synchronized the following day.
The acid-soluble collagen content was determined using the Sircol collagen assay (Accurate Chemical and Scientific Corp; CLRS 1000) following the recommended protocol.

[8] = test system: Human lung epithelial cell line (A-549); assay: BrdU Cell Proliferation Assay, human alveolar epithelial cells; type: cell-based; settings: FIG. 24
Description: Cells were seeded at 5×10^3 cells/well in a 96-well plate (200 μL media per well) & incubated overnight at 37° C./5% CO2. The next day, the conditioned media was aspirated and the cells were PBS-rinsed prior to (fetal bovine) serum starving them for 2 hours followed by 22 hours low serum (0.1% FBS) in order to synchronize them.
On day-3, 2 hours before the end of the 24 hours low serum period, DDAH inhibitors (Proton pump inhibitors; PPIs) were added in a 100 μL solution of 0.1% FBS DMEM. The following DDAH inhibitors were used: Lansoprazole; Esomeprazole; and Rabeprazole. A “vehicle only” sample served as a “no DDAH” control. In addition, Media only (blank control) without cells, and Cells only (background control) were included in the assay. Two hours later, 100 μL of DMEM containing 10% FBS was added to each well in order to serum-stimulate (for 24 hours) the cells and make the total well content to 200 μL. Four hours prior to the end of the 24 hrs, 20 μL of 1:500 diluted Bromodeoxyuridine (BrdU) (diluted in fully-supplemented DMEM) was added to all wells except the “Cells only” control wells.
The incorporation of BrdU into newly synthesized DNA by actively proliferating cells was detected immunochemically using an Antibody directed against BrdU using the recommended protocol and the BrdU Cell Proliferation Assay kit (Millipore; Cat #2750). […]

DDAH = DDAH (Homo sapiens (Human), UniProt O94760); assay: Dilution assay for reversibility of DDAH inhibition (fluorometric); type: biochemical
Chain of DDAH (O94760 whole entry): as above
Description: In order to understand the mechanism by which PPIs inhibit DDAH activity and to determine whether the inhibition mechanism is reversible, a dilution study was conducted, in which DDAH (at a 100-fold excess to the final concentration used) was pre-incubated with excess PPI (100×, 10× or 1× the IC50 value) and then inhibition of enzymatic activity was determined using a fluorometric assay as described above. For a reversible inhibitor that binds to a single site of an enzyme (1:1 stoichiometry), it is anticipated that inhibition can be saturated.

Question: With COc1ccc2[nH]c([S+]([O-])Cc3ncc(C)c(OC)c3C)nc2c1 (centres unmarked) [Omeprazole] as the compound, how does the “concentration up to which not cytotoxic (LDH release)” value [1] read?
Answer: Its value is at least 300 µM.

Question: What about the “concentration up to which cytotoxicity not observed (LDH release)” value [2] of the same compound?
Answer: The value was at least 300 µM.

Question: And the “level of apoptosis (mono- and oligo-nucleosome enrichment)” value [3]?
Answer: The value was “reduced the level of apoptosis”.

Question: And the “inhibition of DDAH activity, CPM fluorometric validation” value (human DDAH1)?
Answer: Its value is “inhibited DDAH activity significantly”.

Question: What about the “incorporation of BrdU” value [4] of the same compound?
Answer: The value was “reduced incorporation of BrdU”.

Question: What about the “levels of nitric oxide (total nitrite, NOx)” value [5] of the same compound?
Answer: The value was “reduced the levels of nitric oxide”.

Question: What about the “intracellular ADMA” value [6] of the same compound?
Answer: The value was “increase in intracellular ADMA”.

Question: What about the “TGF-β induced collagen synthesis” value [7] of the same compound?
Answer: The value was “reduced TGF-β induced collagen synthesis”.

Question: What about the “incorporation of BrdU” value [8] of the same compound?
Answer: The value was “reduced incorporation of BrdU”.

Question: What about the “reversibility of DDAH inhibition upon dilution” value (DDAH; pre-incubation with 100×, 10× or 1× the IC50 value) of the same compound?
Answer: Its value is “reversible inhibition of DDAH”.

Question: And the IC50 (DDAH; value given in FIG. 20 legend)?
Answer: The IC50 was about 60 µM.
